Measured values from patent US20240268419A1, “IgA PRODUCTION PROMOTING AGENT AND FEED COMPOSITION FOR PROMOTING IgA PRODUCTION” (Nippon Beet Sugar Manufacturing Co., Ltd., priority 2022, published 2024).

System: IgA production in the intestinal tract
Test: IgA concentration in feces of suckling calves fed DFAIII (ELISA)
Format: in vivo, Holstein calves
Conditions: for IgA Concentration (mg/g feces): mean ± standard deviation
Source text: Twelve head of Holstein calves in suckling period as test subjects were divided into a control group (7 head) and a DFAIII feeding group (5 head). Colostrum was fed to the calves up to 6 days old after birth. In the DFAIII feeding group, 6 g each of difructose anhydride III (DFAIII) (manufactured by Nippon Beet Sugar Manufacturing Co., Ltd.; product name: Koushi no Mikata) was mixed with the colostrum and fed to the calves in the first and second colostrum feeding after birth (at 0 to 1 day old). From 7 days old, the 7 head of calves in suckling period in the control group were fed with a starter, which is a mixed feed for calf in suckling period (manufactured by Nippon Beet Sugar Manufacturing Co., Ltd.; product name: Start; component contents: protein 22%, total digestible nutrients 74%), and the 5 head of calves in suckling period in the DFAIII feeding group were fed with a feed (DFAIII-containing feed) in which DFAIII (manufactured by Nippon Beet Sugar Manufacturing Co., Ltd.) was added in an amount of 2.0 wt % to and mixed with the starter, by free feeding together with hay and water. The amount 2.0 wt % of DFAIII in the DFAIII-containing feed is calculated as the weight proportion (w/w %) of DFAIII relative to the total weight of the starter and DFAIII. From seven days old, 2 L of 15% milk substitute solution (without DFAIII) was further fed to the calves in suckling period twice a day.
Fresh feces were collected from the calves of each test group at 7 days old, 14 days old, 21 days old, and 28 days old. The IgA concentrations in feces were measured by the ELISA method using an IgA ELISA Quantitation Kit (manufactured by BETHYL Laboratories, Inc.). The IgA concentration in feces was expressed in a milligram amount of IgA per wet mass of the feces.

OC[C@H]1O[C@@]2(CO[C@]3(CO)O[C@H](CO)[C@@H](O)[C@@H]3O2)[C@@H](O)[C@@H]1O [DFAIII, di-D-fructofuranose 1, 2:2,3′ dianhydride]
IgA Concentration (mg/g feces) (7 days old, Holstein calves in suckling period, 6 g DFAIII in first and second colostrum feeding): 0.65 ± 0.32 mg/g feces
IgA Concentration (mg/g feces) (14 days old, 6 g DFAIII in colostrum x2, then starter with 2.0 wt % DFAIII from 7 days old, free feeding): 1.19 ± 0.45 mg/g feces
IgA Concentration (mg/g feces) (21 days old, 6 g DFAIII in colostrum x2, then starter with 2.0 wt % DFAIII from 7 days old, free feeding): 2.60 ± 1.01 mg/g feces
IgA Concentration (mg/g feces) (28 days old, 6 g DFAIII in colostrum x2, then starter with 2.0 wt % DFAIII from 7 days old, free feeding): 1.01 ± 1.34 mg/g feces
IgA concentrations in feces in comparison with the control group (DFAIII feeding group vs control group, Holstein calves in suckling period): statistically significantly higher
